# Test results from PMC10066365, “Nemacol is a small molecule inhibitor of C. elegans vesicular acetylcholine transporter with anthelmintic potential” (Nature Communications, 2023).
# Values joined by “and” are separate entries in the source; they are usually repeats but may differ in a detail not shown here. Equal values may be shown once.
# Tests used:
# Pristionchus pacificus = Pristionchus pacificus motor disruption dose-response on solid media, 1 h; conditions: for mean % any phene (coiled, jerky-Unc or paralyzed): Pristionchus pacificus young adults, mean of three biological replicates
# Method: Locomotor phenotype analyses were done in 24-well plates with 1 mL of MYOB substrate (27.5 g Trizma HCl, 12 g Trizma Base, 230 g bacto tryptone, 10 g NaCl, 0.4 g cholesterol (95%)) seeded with 25 µL of OP50 Escherichia coli on each well. Each compound was added to the MYOB substrate before pouring to achieve the desired final concentrations of 30 µM or 60 µM after diffusion through the media. Synchronized young adult worms are transferred into each well using a platinum wire pick. A Leica MZ75 stereomicroscope was used to visualize the movement of worms on the solid substrate. The specific dominant locomotor phenotype (i.e. ‘Punc’, ‘paralyzed’, ‘coiler’ or ‘wild-type locomotion’) was scored after the touch on the head with a platinum wire over a ~3–5 s of observation. […] Coiled animals were not scored as paralyzed despite sometimes not responding to light touch.
# C. elegans = C. elegans motor phenotype scoring on solid media (Punc/jerky-unc, coiled, paralyzed), wild-type young adults; format: in vivo, Caenorhabditis elegans; conditions: for atypical locomotion (number of animals) / no phene (number of animals) / paralyzed (number of animals) / any phene: mean % fraction of young adults exhibiting any phenotype (coiled, jerky-Unc or paralyzed) / coiled (number of animals): one hour; for atypical locomotion (number of animals) / no phene (number of animals) / paralyzed (number of animals) / coiled (number of animals): young adults, 20 animals per trial, single technical replicate; for any phene: mean % fraction of young adults exhibiting any phenotype (coiled, jerky-Unc or paralyzed): mean of three biological replicates; for Fraction Coiled / Fraction Jerky-Unc / Fraction No Phenotype / Fraction Parayzed: 60 min
# [1] = 15 µM, N2 adult worms, Averages of 3 biological repeats
# [2] = 15 µM, N2 adult worms, Bio Rep 1
# [3] = 15 µM, N2 adult worms, Bio Rep 3
# [4] = 15 µM, N2 adult worms, Bio rep 2
# [5] = 30 µM, N2 adult worms, Averages of 3 biological repeats
# [6] = 30 µM, N2 adult worms, Bio Rep 1
# [7] = 30 µM, N2 adult worms, Bio Rep 3
# [8] = 30 µM, N2 adult worms, Bio rep 2
# [9] = 60 µM, N2 adult worms, Averages of 3 biological repeats
# [10] = 60 µM, N2 adult worms, Bio Rep 1
# [11] = 60 µM, N2 adult worms, Bio Rep 3
# [12] = 60 µM, N2 adult worms, Bio rep 2
# [13] = 120 µM, N2 adult worms, Averages of 3 biological repeats
# [14] = 120 µM, N2 adult worms, Bio Rep 1
# [15] = 120 µM, N2 adult worms, Bio Rep 3
# [16] = 120 µM, N2 adult worms, Bio rep 2
# [17] = 240 µM, N2 adult worms, Averages of 3 biological repeats
# [18] = 240 µM, N2 adult worms, Bio Rep 1
# [19] = 240 µM, N2 adult worms, Bio Rep 3
# [20] = 240 µM, N2 adult worms, Bio rep 2
# [21] = N2, 15 µM, adult worms, average of 3 biological repeats
# [22] = N2, 30 µM, adult worms, average of 3 biological repeats
# [23] = N2, 60 µM, adult worms, average of 3 biological repeats
# [24] = N2, 120 µM, adult worms, average of 3 biological repeats
# [25] = N2, 240 µM, adult worms, average of 3 biological repeats
smiles,measurement,setting,value
"O[C@@H]1CCCC[C@H]1N1CCC(c2ccccc2)CC1 (racemic) [vesamicol, reference compound]","mean % any phene (coiled, jerky-Unc or paralyzed)","Pristionchus pacificus; conc 3.75, observed at one hour",0%
same,"mean % any phene (coiled, jerky-Unc or paralyzed)","Pristionchus pacificus; conc 15, observed at one hour",0.8333%
same,"mean % any phene (coiled, jerky-Unc or paralyzed)","Pristionchus pacificus; conc 60, observed at one hour",9.167%
same,EC50,"Pristionchus pacificus; Pristionchus pacificus, 1 h, read-out: P. pacificus motor disruption EC50",> 60 µM
same,atypical locomotion (number of animals),C. elegans; 3.75uM,0
same,no phene (number of animals),C. elegans; 3.75uM,20
same,paralyzed (number of animals),C. elegans; 3.75uM,0
same,"any phene: mean % fraction of young adults exhibiting any phenotype (coiled, jerky-Unc or paralyzed)",C. elegans; 3.75uM,0%
same,Fraction Coiled,C. elegans; [1],0.00
same,Fraction Jerky-Unc,C. elegans; [1],0.17
same,Fraction No Phenotype,C. elegans; [1],0.83
same,Fraction Parayzed,C. elegans; [1],0.00
same,Fraction Jerky-Unc,C. elegans; [2],0.2778
same,Fraction No Phenotype,C. elegans; [2],0.72
same,Fraction Parayzed,C. elegans; [2],0
same,Fraction Coiled,C. elegans; [3],0.00
same,Fraction Jerky-Unc,C. elegans; [3],0.1667
same,Fraction No Phenotype,C. elegans; [3],0.83
same,Fraction Parayzed,C. elegans; [3],0
same,Fraction Coiled,C. elegans; [4],0.00
same,Fraction Jerky-Unc,C. elegans; [4],0.05556
same,Fraction No Phenotype,C. elegans; [4],0.94
same,Fraction Parayzed,C. elegans; [4],0
same,atypical locomotion (number of animals),C. elegans; 15uM,0
same,coiled (number of animals),C. elegans; 15uM,0
same,no phene (number of animals),C. elegans; 15uM,20
same,paralyzed (number of animals),C. elegans; 15uM,0
same,"any phene: mean % fraction of young adults exhibiting any phenotype (coiled, jerky-Unc or paralyzed)",C. elegans; 15uM,0%
same,Fraction Coiled,C. elegans; [5],0.00
same,Fraction Jerky-Unc,C. elegans; [5],0.41
same,Fraction No Phenotype,C. elegans; [5],0.59
same,Fraction Parayzed,C. elegans; [5],0.00
same,Fraction Coiled,C. elegans; [6],0.00
same,Fraction Jerky-Unc,C. elegans; [6],0.3889
same,Fraction No Phenotype,C. elegans; [6],0.61
same,Fraction Parayzed,C. elegans; [6],0
same,Fraction Coiled,C. elegans; [7],0.00
same,Fraction Jerky-Unc,C. elegans; [7],0.4444
same,Fraction No Phenotype,C. elegans; [7],0.56
same,Fraction Parayzed,C. elegans; [7],0
same,Fraction Coiled,C. elegans; [8],0.00
same,Fraction Jerky-Unc,C. elegans; [8],0.3889
same,Fraction No Phenotype,C. elegans; [8],0.61
same,Fraction Parayzed,C. elegans; [8],0
same,Fraction Coiled,C. elegans; [9],0.0566
same,Fraction Jerky-Unc,C. elegans; [9],0.62
same,Fraction No Phenotype,C. elegans; [9],0.32
same,Fraction Parayzed,C. elegans; [9],0.00
same,Fraction Coiled,C. elegans; [10],0.0556
same,Fraction Jerky-Unc,C. elegans; [10],0.7222
same,Fraction No Phenotype,C. elegans; [10],0.22
same,Fraction Parayzed,C. elegans; [10],0
same,Fraction Coiled,C. elegans; [11],0.06
same,Fraction Jerky-Unc,C. elegans; [11],0.5294
same,Fraction No Phenotype,C. elegans; [11],0.41
same,Fraction Parayzed,C. elegans; [11],0
same,Fraction Coiled,C. elegans; [12],0.0556
same,Fraction Jerky-Unc,C. elegans; [12],0.6111
same,Fraction No Phenotype,C. elegans; [12],0.33
same,Fraction Parayzed,C. elegans; [12],0
same,atypical locomotion (number of animals),C. elegans; 60uM,0 and 1 and 3 and 5 and 2
same,coiled (number of animals),C. elegans; 60uM,1 and 0
same,no phene (number of animals),C. elegans; 60uM,19 and 18 and 17 and 15
same,paralyzed (number of animals),C. elegans; 60uM,0
same,"any phene: mean % fraction of young adults exhibiting any phenotype (coiled, jerky-Unc or paralyzed)",C. elegans; 60uM,11.6667%
same,Fraction Coiled,C. elegans; [13],0.0556
same,Fraction Jerky-Unc,C. elegans; [13],0.74
same,Fraction No Phenotype,C. elegans; [13],0.17
same,Fraction Parayzed,C. elegans; [13],0.037
same,Fraction Coiled,C. elegans; [14],0.11
same,Fraction Jerky-Unc,C. elegans; [14],0.7778
same,Fraction No Phenotype,C. elegans; [14],0.0556
same,Fraction Parayzed,C. elegans; [14],0.05556
same,Fraction Coiled,C. elegans; [15],0.00
same,Fraction Jerky-Unc,C. elegans; [15],0.7222
same,Fraction No Phenotype,C. elegans; [15],0.28
same,Fraction Parayzed,C. elegans; [15],0
same,Fraction Coiled,C. elegans; [16],0.0556
same,Fraction Jerky-Unc,C. elegans; [16],0.7222
same,Fraction No Phenotype,C. elegans; [16],0.17
same,Fraction Parayzed,C. elegans; [16],0.05556
same,Fraction Coiled,C. elegans; [17],0.11
same,Fraction Jerky-Unc,C. elegans; [17],0.80
same,Fraction No Phenotype,C. elegans; [17],0.0741
same,Fraction Parayzed,C. elegans; [17],0.0185
same,Fraction Coiled,C. elegans; [18],0.11
same,Fraction Jerky-Unc,C. elegans; [18],0.8333
same,Fraction No Phenotype,C. elegans; [18],0.00
same,Fraction Parayzed,C. elegans; [18],0.05556
same,Fraction Coiled,C. elegans; [19],0.11
same,Fraction Jerky-Unc,C. elegans; [19],0.7222
same,Fraction No Phenotype,C. elegans; [19],0.17
same,Fraction Parayzed,C. elegans; [19],0
same,Fraction Coiled,C. elegans; [20],0.11
same,Fraction Jerky-Unc,C. elegans; [20],0.8333
same,Fraction No Phenotype,C. elegans; [20],0.0556
same,Fraction Parayzed,C. elegans; [20],0
same,EC50,"C. elegans; Caenorhabditis elegans, 1 h",38.6 ± 3.5 µM
same,Fraction Coiled,C. elegans; [21],0.00
same,Fraction Jerky-Unc,C. elegans; [21],0.17
same,Fraction No Phenotype,C. elegans; [21],0.83
same,Fraction Parayzed,C. elegans; [21],0.00
same,Fraction Coiled,C. elegans; [22],0.00
same,Fraction Jerky-Unc,C. elegans; [22],0.41
same,Fraction No Phenotype,C. elegans; [22],0.59
same,Fraction Parayzed,C. elegans; [22],0.00
same,Fraction Coiled,C. elegans; [23],0.0566
same,Fraction Jerky-Unc,C. elegans; [23],0.62
same,Fraction No Phenotype,C. elegans; [23],0.32
same,Fraction Parayzed,C. elegans; [23],0.00
same,Fraction Coiled,C. elegans; [24],0.0556
same,Fraction Jerky-Unc,C. elegans; [24],0.74
same,Fraction No Phenotype,C. elegans; [24],0.17
same,Fraction Parayzed,C. elegans; [24],0.037
same,Fraction Coiled,C. elegans; [25],0.11
same,Fraction Jerky-Unc,C. elegans; [25],0.80
same,Fraction No Phenotype,C. elegans; [25],0.0741
same,Fraction Parayzed,C. elegans; [25],0.0185
same,"fold difference in C. elegans EC50, Vesamicol vs Nemacol-1","C. elegans; Vesamicol EC50 higher, Nemacol-1 more potent",5.4 fold
